This is an account of results in patent US20120064175A1, “HSP90 Inhibitors for Treating Non-Small Cell Lung Cancer in Wild-Type EGFR and/or KRAS Patients” (Synta Pharmaceuticals Corp., priority 2010, published 2012).

Assay [1] deals with FLT3 with Hsp90. The note with it: cited from earlier work.
In assay [2] the test system is leukemia cells that express either wild type FLT3 or FLT3-ITD mutations. The note with it: Yao, et al. 2003; cited from earlier work.
Assay [3] has as its system Kasumi-1 cells. The following applies: acute myeloid leukemia cell line that harbors a mutation in c-Kit; cited from earlier work.
The subject of assay [4] is RERF-LC-AI human squamous non-small cell lung cancer cell line. As to the kind of experiment: Nude mouse xenograft model with RERF-LC-AI human tumor cells. It is filed as in vivo. The following applies: RERF-LC-AI^IVP tumors, i.p., 5 days per week, 15 doses; heading only, no data given. Here is the method: The human squamous non-small cell lung cancer cell line, RERF-LC-AI (RCB0444; S. Kyoizumi, et al., Cancer. Res. 45:3274-3281, 1985), was obtained from the Riken Cell Bank (Tsukuba, Ibaraki, Japan). The cell line was cultured in growth media prepared from 50% Dulbecco's Modified Eagle Medium (high glucose), 50% RPMI Media 1640, 10% fetal bovine serum (FBS), 1% 100×L-glutamine, 1% 100× penicillin-streptomycin, 1% 100× sodium pyruvate and 1% 100×MEM non-essential amino acids. FBS was obtained from American Type Culture Collection (Manassas, Va., USA) and all other reagents were obtained from Invitrogen Corp. (Carlsbad, Calif., USA). […]
The growth media was replaced every 2-3 days until the flask became 90% confluent, typically in 5-7 days. […] The supernatant was aspirated and the cell pellet was resuspended in 10 ml of growth media and the cell number determined using a hemocytometer. […]
Seven to eight week old, female Crl:CD-1-nuBR (nude) mice were obtained from Charles River Laboratories (Wilmington, Mass., USA) Animals were housed 4-5/cage in micro-isolators, with a 12 hr/12 hr light/dark cycle, acclimated for at least 1 week prior to use and fed normal laboratory chow ad libitum. […] Tumor volumes (V) were calculated by caliper measurement of the width (W), length (L) and thickness (T) of tumors using the following formula: V=0.5236×(L×W×T). […]
(In general: Xenograft models place foreign cells or tissue in a host animal.)

Take `C=CCNC1=C2C[C@@H](C)C[C@H](OC)[C@H](O)[C@@H](C)/C=C(\C)[C@H](OC(N)=O)[C@@H](OC)/C=C\C=C(/C)C(=O)NC(=CC1=O)C2=O` [Compound 17AAG, 17-allylamino-17-demethoxygeldanamycin]: the “Effect on the association of FLT3 with Hsp90” value in assay [1] is on record as “disrupt the association of FLT3 with Hsp90”. Further, in assay [2], the “Growth of leukemia cells” value is listed as “inhibited”. Also, in assay [3], the Apoptosis entry was “induce apoptosis”.
Take `CCc1cc(-c2nnc(S)n2-c2ccc(O)c3c2ccn3C(C)C)c(O)cc1O` [Compound 48, 3-(2,4-DIHYDROXY-5-ETHYL- PHENYL)-4-(1-ISOPROPYL-7- HYDROXY-INDOL-4-YL)-5- MERCAPTO-[1,2,4] TRIAZOLE]: the “Anti-tumor activity against human tumor cells in a nude mouse xenograft model” value in assay [4] is “Displays Anti-tumor Activity”.
